# Test results as given in patent publication US20260232666A1, “COMPOSITIONS AND METHODS FOR INHIBITION OF RAS” (TheRas, Inc., priority 2023, published 2026).
# System: pERK in NCI-H358 cells
# Experiment: Cell-based pERK HTRF assay (pERK inhibition in H358 cells)
# Conditions: Homo sapiens, NCI-H358, 0.5 h, 30 min incubation
# Description: Biological Example 3: Cell-Based pERK HTRF Assay
# pERK assays (Perkin Elmer) were used to determine the effectiveness of compounds of the present disclosure in disrupting KRAS G12C protein/effector signaling in cells.
# On Day 1, cells (NCI-H358) were seeded into 96-well plates at 4×10^4 cells/well in complete growth media (RPMI, 10% FBS).
# On Day 2, cells were treated with compounds at 0.25% DMSO. The source plate was created with compounds diluted in media at 5-fold the final assay concentration. The compounds were run in a 9-point concentration curve starting at 75 μM, with a 3-fold dilution between concentrations. 20 μL was transferred onto the cell plates (final volume in wells was 100 μL). Plates were harvested after 30 min incubation by aspirating media and adding kit-supplied 1× supplemented lysis buffer to all wells (75 μl per well). Plates were then placed on a plate shaker and incubated at 850 rpm for an additional 30 min.
# Antibody mixture solution was prepared by diluting aliquoted d2 and Eu Cryptate antibodies 1:20 in kit supplied detection buffer, then mixed the diluted antibodies solutions (1:1 v:v). 4 μL of this solution was then added to a 384-well detection plate (Perkin Elmer; 6008230).
# Samples were homogenized by pipetting up and down and then transferred (16 μL of cell lysates) from the 96-well cell culture plate to two wells of the HTRF 384-well detection plate containing the antibody solution. Plates were centrifuged (524 g for […]) and allowed to incubate between 4 and 24 h at room temperature. Maximum signal is reached after 4 h incubation time and remains stable over a period of 24 hours. Therefore, readings can be made between 4 and 24 h of incubation. Plates were centrifuged again (524 g for 1 min), and analyzed on the En Vision plate reader using the following settings: Excitation 320 nm, Bandwidth 75 nm; Emission 615 nm, Bandwidth 85 nm; Gain 100%; Flashes 100; Lag 60 μs.
# The percent of modification of GppNHp, GTP, or GDP loaded KRAS G12C by MALDI-TOF MS, biochemical Raf1 RBD-KRAS G12C-GppNHp disruption assay IC50, and pERK inhibition IC50 of selected compounds described herein are shown in Table 4. For percent of modification at 15 minutes (MALDI-TOF MS) of GppNHp, GTP, or GDP loaded KRAS G12C: A: percent of modification ≥70%; B: 50≤percent of modification <70%; C: 10%≤percent of modification <50%; D: percent of modification <10%. […] For pERK inhibition in H358 cell assay: A: IC50≤0.1 μM; B: 0.1 μM<IC50≤1 μM; C: IC50>1 μM. Blanks in the table represent that compound was not tested in the indicated assay.
row,Compound,IC50 [nM]
1,C=CC(=O)N1CC[C@@H](N(C)c2nc(OC[C@@H]3C(=C(F)F)CCN3C)nc3c(F)c(-c4ccc(F)c5sc(N)c(C#N)c45)c(Cl)cc23)[C@H]1C [Compound 198],< 100
2,C=CC(=O)N1CC[C@@H](N(C)c2nc(OC[C@@H]3C(=C(F)F)CCN3C)nc3c(F)c(-c4ccc(F)c5sc(N)c(C#N)c45)c(C(F)(F)F)cc23)[C@H]1C [Compound 199],< 100
3,C=CC(=O)N1CC[C@@H](N(C)c2nc(O[C@@H](C)[C@@H]3C(=C)CCN3C)nc3c(F)c(-c4ccc(F)c5sc(N)c(C#N)c45)c(Cl)cc23)[C@H]1C [Compound 200],< 100

# Molecular target: T1, GTP-loaded KRAS4b (amino acids 1-169) G12C/C118S protein (Homo sapiens, UniProt P01116, C118S/G12C)
# T1 construct: KRAS4b (amino acids 1-169) G12C/C118S protein; made in house
# Experiment: Covalent cysteine 12 modification by MALDI-TOF MS, GTP-loaded KRAS G12C
# Assay type: binding
# Conditions: 15 minutes reaction time point
# Description: (§1) Biological Example 1: Covalent Cysteine 12 Modification Analysis Using Matrix Assisted Laser Desorption Ionization-Time of Flight Mass Spectrometry (MALDI-TOF MS)
# (§2) MALDI-TOF MS analysis was performed using 1 μM protein (KRAS G12C), and 1:2.5 protein to compound ratio.
# (§3) Reaction: 1 μM of GppNHp, GTP, or GDP-loaded KRAS4b (amino acids 1-169) G12C/C118S protein (produced in-house by Protein Expression Laboratory, FNLCR/Leidos Biomed) in 20 mM 4-(2-hydroxyethyl)-1-piperazineethanesulfonic acid (HEPES) buffer containing 150 mM NaCl, 1 mM MgCl2, pH 7.3 was prepared freshly before assay. Twelve-μL aliquots of protein were dispensed onto low volume 384-well plate, then 30 nL of tested compounds from 1 mM DMSO stocks were added to appropriate wells using ECHO 555 acoustic liquid handler (Labcyte Inc.). For each reaction/assay, three blanks were prepared by mixing 12 μL of protein solution with 30 nL DMSO. The contents of the wells were carefully mixed by aspiration, and then each plate was sealed with an adhesive cover, centrifuged at 2000 g for 1 minute, and kept in the dark at room temperature until 5 min, 15 min, 30 min, 2 h, or 6 h collections.
# (§4) Target pretreatment: Before each assay MALDI target (Bruker MPT 384 ground steel BC) was pre-treated by pipetting on each spot 0.75 μL of saturated sinapinic acid in acetonitrile (ACN).
# (§5) Sample preparation: At collection time point, 2 μL of reaction mixtures were pipetted out into 15 μL MALDI matrix solution (saturated solution of sinapinic acid in 1:1 ACN:water solution containing 0.75% trifluoroacetic acid (TFA)) deposited on 384 well polypropylene plate. Resulting solution was mixed by aspiration, centrifuged at 2000 g for 1 minute, then 1.5 μL aliquots were dispensed on pre-treated MALDI target using Beckman Coulter Biomek FXP 96/384-Span-8 Laboratory Automation Workstation. Finally, the MALDI target was dried under mild vacuum to produce spots with fine crystalline structure.
# (§6) Measurements: MALDI-TOF measurements were performed on a Bruker Daltonics rapiflex Tissuetyper TOF-TOF mass spectrometer using linear mode and mass range from 18.6 to 21.6 kDa. Detector gain was set to 3.3×(483 V), sample rate to 5 GS/s, real time smoothing to medium (175 MHz), laser smart beam pattern was set to: “MS Thin Layer M5”, and the laser frequency was 10000 Hz. Spectra were automatically collected using custom AutoXecute method. Laser power was auto adjusted using fuzzy control. The peak selection range was set to be between 19000 and 21500 Da. Peak evaluation uses half width parameter set to be smaller than 40 Da for processed spectrograms (centroid peak detection; smoothed by SavitzkyGolay algorithm using 7 m/z width and 2 cycles; baseline was subtracted using median algorithm with flatness 1 and median level 0.01). Fuzzy control used Proteins/Oligonucleotides protocol with minimum half width 1/10 times above threshold. Up to 40000 satisfactory shots were collected in 10000 shot steps. Dynamic termination was implemented to finish data collection when peak signal/noise ratio was reaching value of 50.
# (§7) Spectra processing: Spectra were smoothed by SavitzkyGolay algorithm using 7 m/z width and three cycles. Centroid peak detection algorithm was used with signal to noise threshold set to 6, relative intensity threshold 4%, peak width 10 m/z and median baseline subtraction using flatness of 1 and median level of 0.01. Peak intensity and area under the peak were evaluated and recorded for all peaks between 19,300 Da and 21,550 Da.
# (§8) Calculation of percent modification: Percent modification was calculated as a ratio of peak height for protein modified by compound to sum of peak height of remaining protein plus peak height for protein modified by compound. If multiple modifications were observed each was calculated as a ratio of peak height for given modification versus sum of peak heights for all observed protein species. Data reported in Table 4 are from 15 minutes reaction time point. […]
row,Compound,GTP-KRAS G12C percent of modification
1,C=CC(=O)N1CC[C@@H](N(C)c2nc(OC[C@@H]3C(=C(F)F)CCN3C)nc3c(F)c(-c4ccc(F)c5sc(N)c(C#N)c45)c(Cl)cc23)[C@H]1C [Compound 198],B (50≤percent of modification <70%)
2,C=CC(=O)N1CC[C@@H](N(C)c2nc(OC[C@@H]3C(=C(F)F)CCN3C)nc3c(F)c(-c4ccc(F)c5sc(N)c(C#N)c45)c(C(F)(F)F)cc23)[C@H]1C [Compound 199],C (10%≤percent of modification <50%)
3,C=CC(=O)N1CC[C@@H](N(C)c2nc(O[C@@H](C)[C@@H]3C(=C)CCN3C)nc3c(F)c(-c4ccc(F)c5sc(N)c(C#N)c45)c(Cl)cc23)[C@H]1C [Compound 200],B (50≤percent of modification <70%)

# Molecular target: T2, GDP-loaded KRAS4b (amino acids 1-169) G12C/C118S protein (Homo sapiens, UniProt P01116, C118S/G12C)
# T2 construct: KRAS4b (amino acids 1-169) G12C/C118S protein; made in house
# Experiment: Covalent cysteine 12 modification by MALDI-TOF MS, GDP-loaded KRAS G12C
# Assay type: binding
# Conditions: 15 minutes reaction time point
# Description: as §1, §2, §3, §4, §5, §6, §7, §8
row,Compound,GDP-KRAS G12C percent of modification
1,C=CC(=O)N1CC[C@@H](N(C)c2nc(OC[C@@H]3C(=C(F)F)CCN3C)nc3c(F)c(-c4ccc(F)c5sc(N)c(C#N)c45)c(Cl)cc23)[C@H]1C [Compound 198],B (50≤percent of modification <70%)
2,C=CC(=O)N1CC[C@@H](N(C)c2nc(OC[C@@H]3C(=C(F)F)CCN3C)nc3c(F)c(-c4ccc(F)c5sc(N)c(C#N)c45)c(C(F)(F)F)cc23)[C@H]1C [Compound 199],C (10%≤percent of modification <50%)
3,C=CC(=O)N1CC[C@@H](N(C)c2nc(O[C@@H](C)[C@@H]3C(=C)CCN3C)nc3c(F)c(-c4ccc(F)c5sc(N)c(C#N)c45)c(Cl)cc23)[C@H]1C [Compound 200],C (10%≤percent of modification <50%)

# Molecular target: T3, GppNHp-loaded KRAS4b (amino acids 1-169) G12C/C118S protein (Homo sapiens, UniProt P01116, C118S/G12C)
# T3 construct: KRAS4b (amino acids 1-169) G12C/C118S protein; made in house
# Experiment: Covalent cysteine 12 modification by MALDI-TOF MS, GppNHp-loaded KRAS G12C
# Assay type: binding
# Conditions: 15 minutes reaction time point
# Description: as §1, §2, §3, §4, §5, §6, §7, §8
row,Compound,GppNHp-KRAS G12C percent of modification
1,C=CC(=O)N1CC[C@@H](N(C)c2nc(OC[C@@H]3C(=C(F)F)CCN3C)nc3c(F)c(-c4ccc(F)c5sc(N)c(C#N)c45)c(Cl)cc23)[C@H]1C [Compound 198],B (50≤percent of modification <70%)
2,C=CC(=O)N1CC[C@@H](N(C)c2nc(OC[C@@H]3C(=C(F)F)CCN3C)nc3c(F)c(-c4ccc(F)c5sc(N)c(C#N)c45)c(C(F)(F)F)cc23)[C@H]1C [Compound 199],C (10%≤percent of modification <50%)
3,C=CC(=O)N1CC[C@@H](N(C)c2nc(O[C@@H](C)[C@@H]3C(=C)CCN3C)nc3c(F)c(-c4ccc(F)c5sc(N)c(C#N)c45)c(Cl)cc23)[C@H]1C [Compound 200],A (percent of modification ≥70%)
